Data: patent US20160206550A1, “STROMAL DELLS DERIVED CONDITIONED MEDIUM, METHOD OF OBTAINING SAID CONDITIONED MEDIUM COMPOSITIONS, FORMULATIONS AND APPLICATIONS THEREOF” (STEMPEUTICS RESEARCH PVT. LTD., priority 2013, published 2016)

Test system: HFF-1 cells
Assay: Cytoprotective/viability restorative effect against tbOH damage (MTT)
Type: cell-based, human
Settings: 100 μM, positive control in serum free medium
Experimental: Cytoprotective viability restorative effects of 10×CM generated by process 2 against oxidative damage in dermal fibroblast cells upon treatment with 300 μM of tert-butyl hydroperoxide (tbOH) for 2 h and post treatment of damaged fibroblast with 10×CM for 48 h is evaluated by MTT assay. Treatment of HFF-1 cells with 300 μM of tbOH leads to 35% decrease in cellular viability in SFM treated as compared to untreated cells. The cytoprotection obtained with 10×CM is 11%, 18% and 12% higher at the doses of 5%, 10% and 50% respectively as compared to respective 10× control medium treated cells against tbOH damage (FIG. 10). In this assay, serum free medium with ascorbic acid (SFM+AA) is used as a positive control. Treatment of HFF-1 cells with 100 μM ascorbic acid (AA) also leads to 12% cytoprotection against tbOH damage. […] 10×CM has shown a trend in the ability to restore the viability of oxidative stressed fibroblast cells at the concentrations 5%, 10% and 50%. Maximum activity is observed at 10% 10×CM.

## O=C1O[C@H]([C@@H](O)CO)C(O)=C1O [ascorbic acid]
  cytoprotection against tbOH damage: 12%
